Structures are written as SMILES. Where “and” joins values, the source holds several entries; their conditions need not be identical. Equal entries are not always repeated.

Take `CCCCCCCCCCCCCCCCS` [1-hexadecanethiol]: the melting point (commonly the temperature, or range, at which the solid turns liquid) came out at 21 °C.

Consider `O=C(O)/C=C\C(=O)O` [(2Z)-But-2-enedioic acid], for which the melting point was found to be 138 °C.

For `CCCN(CCC)CCC` [N,N-Dipropylpropan-1-amine], the melting point is -93.5 °C.

Molecule `Cc1ccc(B(O)O)cc1` [4-methylbenzeneboronic acid] yielded a melting point of 250 °C.

`O=C1OC(c2ccccc2)=N/C1=C/c1ccc(-c2ccccc2Br)o1`: the melting point is 160 °C.

For `CCOC(=O)/C(C#N)=C\c1ccc(-c2ccc(C)cc2)o1` [Ethyl (2Z)-2-cyano-3-[5-(4-methylphenyl)-2-furyl]acrylate], the melting point came out at 124 °C.

Molecule `O=C(O)c1cc(Cl)c(C(=O)O)cc1Cl` [2,5-dichloroterephthalic acid] registered a melting point of 295 °C.

In turn, `COc1ccc(-c2cc(=O)c3c(O)c(OC)c(O)cc3o2)cc1` [5,7-Dihydroxy-6-methoxy-2-(4-methoxyphenyl)-4H-chromen-4-one] registered a melting point of 225 °C.

Molecule `OCc1ccc(B(O)O)cc1` [4-(hydroxymethyl)benzeneboronic acid] gave a melting point of 280 °C.

`OB(O)c1ccc(CBr)cc1` [4-(bromomethyl)benzeneboronic acid] registered a melting point of 148 °C.

Molecule `O=C(c1ccccc1)C1CCCCC1` [cyclohexyl phenyl ketone] registered a melting point of 55 °C.

In turn, `CCC1(CC)C(=O)NC(=O)NC1=O` [Barbital] yielded a melting point of 190 °C.

As for `OCCCCCCCCCO` [1,9-nonanediol], the melting point turned out to be 47 °C.

With `CC(C)C=O` [2-Methylpropanal], the melting point is -65 °C.

For `O=C(O)Cc1ccccc1Oc1ccc(Cl)cc1Cl` [fenclofenac], the melting point stood at 135 °C.

`O=C(c1ccccc1)C(c1ccccc1)(c1ccccc1)c1ccccc1` [benzopinacolone] returned a melting point of 182 °C.

In turn, `Fc1nc(Cl)c2nc[nH]c2n1` [6-chloro-2-fluoropurine] showed a melting point of 152 °C.

`BrC(=C(c1ccccc1)c1ccccc1)c1ccccc1` [bromotriphenylethylene] gave a melting point of 114 °C.

As for `Clc1ccc(-c2ccccc2Cl)cc1` [PCB-8], the melting point turned out to be 44 °C.

Molecule `CCOC(=O)c1ccc([N+](=O)[O-])o1` [ethyl 5-nitro-2-furoate] returned a melting point of 100 °C.

Molecule `C[C@]12CCC(O)CC1CC[C@@H]1[C@@H]2CC[C@@]2(C)[C@H]1CC[C@]2(O)C#Cc1ccccc1` (stereo partly specified) [21-phenylpregn-20-yne-3,17-diol] showed a melting point of 122 °C.

`O=Cc1cc([N+](=O)[O-])cc([N+](=O)[O-])c1O` [3,5-dinitrosalicylaldehyde] returned a melting point of 73 °C.

The molecule `Oc1ccc(Br)cc1Br` [2,4-dibromophenol] had a melting point of 40 °C.

`Cc1cccc(C(=O)NCC(=O)O)c1` [3-methylhippuric acid] registered a melting point of 139 °C.

Molecule `C[C@@H](O)[C@H](NC(=O)OCc1ccccc1)C(=O)O` [N-benzyloxycarbonyl-l-threonine] yielded a melting point of 98 °C.

In turn, `COC1=CC(=O)C[C@@H](C)[C@]12Oc1c(Cl)c(OC)cc(OC)c1C2=O` [Griseofulvin] returned a melting point of 220 °C.

`CCNC(=O)C(=O)NCC` [N,N'-diethyloxamide] registered a melting point of 180 °C.

Regarding `O=C(CCCN1CCC(O)(c2ccc(Cl)cc2)CC1)c1ccc(F)cc1` [Haloperidol], the melting point was determined as 148 °C.

The molecule `C=CCCCCCCCC` [1-decene] displayed a melting point of -66.1 °C.

With `CC(=O)OC1C(C)OC(OCc2ccccc2)C(OC(C)=O)C1OC(C)=O` (stereo unspecified) [benzyl 2,3,4-tri-O-acetyl-6-deoxyhexopyranoside], the melting point was determined as 112 °C.

Regarding `C[C@]12CCC(=O)C=C1CC[C@@H]1[C@@H]2C(=O)C[C@@]2(C)[C@H]1CC[C@]2(O)C(=O)CO` [Cortisone], the melting point amounted to 225 °C.

As to `CCCCCCOCCO` [2-(n-hexyloxy)ethanol], the melting point is -42 °C.

Consider `COC(=O)c1[nH]c(C(=O)OC)c(O)c1O` [dimethyl 3,4-dihydroxypyrrole-2,5-dicarboxylate], for which the melting point was determined as 211 °C.

Consider `CC(=O)Nc1ccc(O)cc1` [N-(4-Hydroxyphenyl)acetamide], for which the melting point amounted to 170 °C.

With `ICCI` [1,2-diiodoethane], the melting point was 81 °C.

Molecule `N#CCc1ccc(CC#N)cc1` [p-Xylylene dicyanide] had a melting point of 96 °C.

The molecule `BrCCCBr` [1,3-dibromopropane] showed a melting point of -34 °C.

`CS(=O)c1ccc(cc1)/C=C3c2ccc(F)cc2C(CC(=O)O)=C3C` (stereo unspecified) [sulindac] came in with a melting point of 185 °C.

In turn, `CCOC(=O)n1ccn(C)c1=S` [ethyl 3-methyl-2-thionoimidazoline-1-carboxylate] had a melting point of 124 °C.

For the molecule `COc1ccc(-c2ccccc2)cc1` [4-methoxybiphenyl], the melting point stood at 91 °C.

In the case of `CCOC(=O)/C=C/C(=O)OCC` [Diethyl (2E)-but-2-enedioate], the melting point came to 1 °C.

Molecule `O=C(Cl)c1ccccc1` [Benzoyl chloride] had a melting point of -1 °C.

The molecule `CC(C)(C)S` [2-methyl-2-propanethiol] came in with a melting point of 1 °C.

`C[C@]12CC[C@@H]3c4ccc(O)cc4CC[C@H]3[C@@H]1CC[C@@H]2O` [Estradiol] had a melting point of 176 °C.

`Oc1cccc(O)c1O` [pyrogallol]: the melting point was 133 °C.

`CC(=O)C(C)C` [3-methyl-2-butanone] came in with a melting point of -92 °C.

`CCOC(=O)CC(C)=O` [ethyl_acetoacetate] gave a melting point of -43 °C.

`O[C@@H]1CO[C@H]2[C@@H]1OC[C@@H]2O` [D-isosorbide] had a melting point of 60 °C.

`O=C1CCCCCN1` [epsilon-caprolactam]: the melting point was 70 °C.

For the molecule `Cc1ccc(Cl)cc1Cl` [2,4-dichlorotoluene], the melting point is -13 °C.

On to `COc1ccc(NS(=O)(=O)c2ccc(N)cc2)nn1` [sulfamethoxypyridazine], for which the melting point amounted to 182 °C.

The molecule `CCOC(=O)c1ccc(N=C=S)cc1` [4-(ethoxycarbonyl)phenyl isothiocyanate] returned a melting point of 54 °C.

In turn, `Cc1cccc(-c2ccccc2)c1` [1-methyl-3-phenylbenzene] returned a melting point of 5 °C.

Molecule `Clc1cccc(Cl)c1Cl` [1,2,3-Trichlorobenzene] returned a melting point of 53 °C.

As to `CCCC1COC(c2ccc(C#N)cc2)OC1` (stereo unspecified) [2-(4-cyanophenyl)-5-n-propyl-1,3-dioxane], the melting point worked out at 58 °C.

As for `Clc1cc(Cl)c(Cl)c(Cl)c1` [1,2,3,5-tetrachlorobenzene], the melting point is 53 °C and 55 °C and 51.5 °C.

As for `Nc1ccc(O)c([N+](=O)[O-])c1` [4-amino-2-nitrophenol], the melting point was found to be 129 °C.

Regarding `CCCI` [1-Iodopropane], the melting point was -101 °C.

In turn, `O=C1Nc2ccccc2C[C@H]1c1ccccc1F` [3-(2-Fluorophenyl)-1,2,3,4-tetrahydro-2-quinolone] showed a melting point of 191 °C.

Regarding `NCCCCCCO` [6-Aminohexan-1-ol], the melting point worked out at 56 °C.

In the case of `BrCCCCBr` [1,4-dibromobutane], the melting point was -20 °C.

For the molecule `OC/C(Br)=C(\Br)CO` [trans-2,3-dibromo-2-butene-1,4-diol], the melting point came to 113 °C.

As to `CC[C@H](C)C(=O)O[C@H]1C[C@@H](C)C=C2C=C[C@H](C)[C@H](CC[C@@H]3C[C@@H](O)CC(=O)O3)[C@H]21` [lovastatin], the melting point was found to be 175 °C.

With `O=C(Oc1ccc2ccccc2c1)c1ccccc1` [2-naphthyl benzoate], the melting point was 107 °C.

In turn, `COc1ccc2cc[nH]c2c1` [6-methoxyindole] displayed a melting point of 92 °C.

Regarding `CCCCCC(=O)O` [hexanoic acid], the melting point was -1.9 °C.

As for `COc1ccc(O)c(C=O)c1` [2-hydroxy-5-methoxybenzaldehyde], the melting point was found to be 15 °C.

`Nc1ncc(Br)cc1[N+](=O)[O-]` [2-amino-5-bromo-3-nitropyridine] gave a melting point of 208 °C.

Turning to `COc1ccc(B(O)O)c(C)c1` [4-methoxy-2-methylbenzeneboronic acid], the melting point is 191 °C.

In turn, `Nc1ccc(I)cc1Cl` [2-chloro-4-iodoaniline] showed a melting point of 70 °C.

Regarding `O=C(Nc1cccc(OC(=O)c2ccccc2)c1)c1ccccc1` [3-(benzoylamino)phenyl benzoate], the melting point was found to be 153 °C.

Molecule `CC(=O)c1ccc(F)c(Cl)c1` [3'-chloro-4'-fluoroacetophenone] gave a melting point of 39 °C.

`Cc1ccc2cc([N+](=O)[O-])ccc2n1` [2-methyl-6-nitroquinoline] returned a melting point of 164 °C.

In turn, `Nc1ccc(S(=O)(=O)Nc2nccs2)cc1` [4-Amino-N-(1,3-thiazol-2-yl)benzenesulfonamide] gave a melting point of 202 °C.

The molecule `CCCCCCSc1nc[nH]n1` [3-n-hexylthio-1,2,4-triazole] came in with a melting point of 67 °C.

Regarding `Clc1ccc(Cl)cc1` [1,4-dichlorobenzene], the melting point is 54 °C.

The molecule `CC(=O)C=C(C)c1ccc(-c2ccccc2)cc1` [Xenipentone] showed a melting point of 133 °C.

`Cc1c(N(C)C)c(=O)n(-c2ccccc2)n1C` [4-(dimethylamino)antipyrine]: the melting point was 107 °C.

Take `NC(=O)N[C@@H]1O[C@H](CO)[C@@H](O)[C@H](O)[C@H]1O` [N-Carbamoyl-beta-D-glucopyranosylamine]: the melting point is 207 °C.

As for `c1ccc2c(c1)OCCOCCOCCOCCOCCO2` [benzo-18-crown-6], the melting point was determined as 44 °C.

Turning to `Cc1cccc(Cl)c1Cl` [2,3-dichlorotoluene], the melting point stood at 6 °C.

Take `Cc1cc(C=O)c(C)n1-c1ccc(F)cc1` [OSM-S-02]: the melting point is 118 °C.

Take `Cc1cc(C2(c3cc(C)c(O)c(CN(CC(=O)O)CC(=O)O)c3)OS(=O)(=O)c3ccccc32)cc(CN(CC(=O)O)CC(=O)O)c1O`: the melting point was 210 °C.

For `CC(=O)Nc1ccc(F)cc1F` [2',4'-difluoroacetanilide], the melting point stood at 122 °C.

Molecule `CC(=O)Nc1ccc(/N=N/c2ccc(/N=N/c3ccc(/N=N/c4ccc(NC(C)=O)cc4)cc3)cc2)cc1` returned a melting point of 247 °C.

As to `C#CCCC(C)C` [5-methyl-1-hexyne], the melting point was -124 °C.
